In patent US9738634B2, “Heterocyclic amide compound and herbicide” (SYNGENTA PARTICIPATIONS AG, priority 2013, dated 2017):

What was measured:
Format in all cases: in vivo
transplanted rice = assay: Test Example 1: preemergent weed treatment in the submerged state, effect on crop; a: transplanted rice; details: treatment dosage 320 g/ha
Outline: (§1)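 Visual scores against set criteria were taken 3 weeks after treatment. Compounds, as diluted emulsions at specified g/ha, went onto the water surface of 4 cm-flooded alluvial soil pots on the day weeds were sown and 2.5-leaf rice was transplanted; greenhouse held 25–30 °C.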

barnyard grass [1] = assay: Test Example 2: weedkilling efficacy, growth period weed treatment in the submerged state; A: barnyard grass; details: treatment dosage 320 g/ha
Outline: (§2)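 Barnyard grass, bulrush and oval-leafed pondweed sown in alluvial soil under 4 cm flooding, greenhouse 25 to 30° C. At 1-2 leaf stage, water-diluted emulsion applied to the water surface at stated g/ha dosages; effects scored 3 weeks later.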

bulrush [2] = assay: Test Example 1: weedkilling efficacy, preemergent weed treatment in the submerged state; B: bulrush; details: treatment dosage 320 g/ha
Outline: as §1

catchweed = assay: Test Example 3: weedkilling efficacy through soil treatment; O: catchweed; details: soil treatment, treatment dosage 320 g/ha
Outline: (§3)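 Crop and weed responses were judged three weeks after a uniform surface spray of the water-diluted emulsion at the given g/ha rate. Seeds sat beneath about 1.5 cm of sterilized diluvial soil, and boxes stood in a greenhouse at 25 to 30° C.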

directly sown rice = assay: Test Example 3: soil treatment, effect on crop; b: directly sown rice; details: soil treatment, treatment dosage 320 g/ha
Outline: as §3

beet = assay: Test Example 3: soil treatment, effect on crop; f: beet; details: soil treatment, treatment dosage 320 g/ha
Outline: as §3

oval-leafed pondweed [3] = assay: Test Example 2: weedkilling efficacy, growth period weed treatment in the submerged state; C: oval-leafed pondweed; details: treatment dosage 320 g/ha
Outline: as §2

bulrush [4] = assay: Test Example 2: weedkilling efficacy, growth period weed treatment in the submerged state; B: bulrush; details: treatment dosage 320 g/ha
Outline: as §2

soybean = assay: Test Example 3: soil treatment, effect on crop; d: soybean; details: soil treatment, treatment dosage 320 g/ha
Outline: as §3

redroot pigweed = assay: Test Example 3: weedkilling efficacy through soil treatment; L: redroot pigweed; details: soil treatment, treatment dosage 320 g/ha
Outline: as §3

rapeseed = assay: Test Example 3: soil treatment, effect on crop; g: rapeseed; details: soil treatment, treatment dosage 320 g/ha
Outline: as §3

fig-leafed goosefoot = assay: Test Example 3: weedkilling efficacy through soil treatment; M: fig-leafed goosefoot; details: soil treatment, treatment dosage 320 g/ha
Outline: as §3

crabgrass = assay: Test Example 3: weedkilling efficacy through soil treatment; D: crabgrass; details: soil treatment, treatment dosage 320 g/ha
Outline: as §3

green foxtail = assay: Test Example 3: weedkilling efficacy through soil treatment; E: green foxtail; details: soil treatment, treatment dosage 320 g/ha
Outline: as §3

corn = assay: Test Example 3: soil treatment, effect on crop; c: corn; details: soil treatment, treatment dosage 320 g/ha
Outline: as §3

chickweed = assay: Test Example 3: weedkilling efficacy through soil treatment; N: chickweed; details: soil treatment, treatment dosage 320 g/ha
Outline: as §3

Indian mallow = assay: Test Example 3: weedkilling efficacy through soil treatment; K: Indian mallow; details: soil treatment, treatment dosage 320 g/ha
Outline: as §3

Italian ryegrass = assay: Test Example 3: weedkilling efficacy through soil treatment; I: Italian ryegrass; details: soil treatment, treatment dosage 320 g/ha
Outline: as §3

birds-eye speedwell = assay: Test Example 3: weedkilling efficacy through soil treatment; p: birds-eye speedwell; details: soil treatment, treatment dosage 320 g/ha
Outline: as §3

wild oat = assay: Test Example 3: weedkilling efficacy through soil treatment; G: wild oat; details: soil treatment, treatment dosage 320 g/ha
Outline: as §3

barnyard grass [5] = assay: Test Example 3: weedkilling efficacy through soil treatment; F: barnyard grass; details: soil treatment, treatment dosage 320 g/ha
Outline: as §3

black-grass = assay: Test Example 3: weedkilling efficacy through soil treatment; H: black-grass; details: soil treatment, treatment dosage 320 g/ha
Outline: as §3

wheat = assay: Test Example 3: soil treatment, effect on crop; e: wheat; details: soil treatment, treatment dosage 320 g/ha
Outline: as §3

common wind-grass = assay: Test Example 3: weedkilling efficacy through soil treatment; J: common wind-grass; details: soil treatment, treatment dosage 320 g/ha
Outline: as §3

barnyard grass [6] = assay: Test Example 1: weedkilling efficacy, preemergent weed treatment in the submerged state; A: barnyard grass; details: treatment dosage 320 g/ha
Outline: as §1

oval-leafed pondweed [7] = assay: Test Example 1: weedkilling efficacy, preemergent weed treatment in the submerged state; C: oval-leafed pondweed; details: treatment dosage 320 g/ha
Outline: as §1

Row | SMILES | a: transplanted rice, effect on crop grade (transplanted rice) | A (barnyard grass) weedkilling efficacy grade (barnyard grass [1]) | B: bulrush, weed kill grade (bulrush [2]) | O: catchweed, weedkilling efficacy grade (catchweed) | b: directly sown rice, effect on crop grade (directly sown rice) | f: beet, effect on crop grade (beet) | C (oval-leafed pondweed) weedkilling efficacy grade (oval-leafed pondweed [3]) | B (bulrush) weedkilling efficacy grade (bulrush [4]) | d: soybean, effect on crop grade (soybean) | L: redroot pigweed, weedkilling efficacy grade (redroot pigweed) | g: rapeseed, effect on crop grade (rapeseed) | M: fig-leafed goosefoot, weedkilling efficacy grade (fig-leafed goosefoot) | D: crabgrass, weedkilling efficacy grade (crabgrass) | E: green foxtail, weedkilling efficacy grade (green foxtail) | c: corn, effect on crop grade (corn) | N: chickweed, weedkilling efficacy grade (chickweed) | K: Indian mallow, weedkilling efficacy grade (Indian mallow) | I: Italian ryegrass, weedkilling efficacy grade (Italian ryegrass) | P: birds-eye speedwell, weedkilling efficacy grade (birds-eye speedwell) | G: wild oat, weedkilling efficacy grade (wild oat) | further results
1 | CC(C)(C(=O)Nc1cc(C(F)F)ccn1)N1COCN(c2ccccc2)C1=O [A-2-40] | 1 (weed kill ratio 5% or more, less than 20%) | 5 (weed kill ratio 90% or more, (practically complete withering)) | 5 (weed kill ratio 90% or more, (practically complete withering)) | 5 (weed kill ratio 90% or more, (practically complete withering)) | 5 (weed kill ratio 90% or more, (practically complete withering)) | 4 (weed kill ratio 70% or more, less than 90%) | 5 (weed kill ratio 90% or more, (practically complete withering)) | 5 (weed kill ratio 90% or more, (practically complete withering)) | 3 (weed kill ratio 40% or more, less than 70%) | 4 (weed kill ratio 70% or more, less than 90%) | 4 (weed kill ratio 70% or more, less than 90%) | 4 (weed kill ratio 70% or more, less than 90%) | 5 (weed kill ratio 90% or more, (practically complete withering)) | 5 (weed kill ratio 90% or more, (practically complete withering)) | 2 (weed kill ratio 20% or more, less than 40%) | 4 (weed kill ratio 70% or more, less than 90%) | 4 (weed kill ratio 70% or more, less than 90%) | 5 (weed kill ratio 90% or more, (practically complete withering)) | 5 (weed kill ratio 90% or more, (practically complete withering)) | 5 (weed kill ratio 90% or more, (practically complete withering)) | F: barnyard grass, weedkilling efficacy grade (barnyard grass [5]): 5 (weed kill ratio 90% or more, (practically complete withering)); H: black-grass, weedkilling efficacy grade (black-grass): 5 (weed kill ratio 90% or more, (practically complete withering)); e: wheat, effect on crop grade (wheat): 1 (weed kill ratio 5% or more, less than 20%); J: common wind-grass, weedkilling efficacy grade (common wind-grass): 5 (weed kill ratio 90% or more, (practically complete withering)); A: barnyard grass, weed kill grade (barnyard grass [6]): 5 (weed kill ratio 90% or more, (practically complete withering)); C: oval-leafed pondweed, weed kill grade (oval-leafed pondweed [7]): 5 (weed kill ratio 90% or more, (practically complete withering))
2 | CCc1cc(F)nc(NC(=O)C(C)(C)N2COCN(c3ccccc3)C2=O)c1 [A-2-21] | 5 (weed kill ratio 90% or more, (practically complete withering)) | 5 (weed kill ratio 90% or more, (practically complete withering)) | 5 (weed kill ratio 90% or more, (practically complete withering)) | 4 (weed kill ratio 70% or more, less than 90%) | 5 (weed kill ratio 90% or more, (practically complete withering)) | 0 (weed kill ratio 5% or less (practically no effect)) | 5 (weed kill ratio 90% or more, (practically complete withering)) | 5 (weed kill ratio 90% or more, (practically complete withering)) | 3 (weed kill ratio 40% or more, less than 70%) | 4 (weed kill ratio 70% or more, less than 90%) | 4 (weed kill ratio 70% or more, less than 90%) | 5 (weed kill ratio 90% or more, (practically complete withering)) | 5 (weed kill ratio 90% or more, (practically complete withering)) | 5 (weed kill ratio 90% or more, (practically complete withering)) | 0 (weed kill ratio 5% or less (practically no effect)) | 4 (weed kill ratio 70% or more, less than 90%) | 2 (weed kill ratio 20% or more, less than 40%) | 5 (weed kill ratio 90% or more, (practically complete withering)) | 5 (weed kill ratio 90% or more, (practically complete withering)) | 5 (weed kill ratio 90% or more, (practically complete withering)) | F: barnyard grass, weedkilling efficacy grade (barnyard grass [5]): 5 (weed kill ratio 90% or more, (practically complete withering)); H: black-grass, weedkilling efficacy grade (black-grass): 5 (weed kill ratio 90% or more, (practically complete withering)); e: wheat, effect on crop grade (wheat): 1 (weed kill ratio 5% or more, less than 20%); J: common wind-grass, weedkilling efficacy grade (common wind-grass): 5 (weed kill ratio 90% or more, (practically complete withering)); A: barnyard grass, weed kill grade (barnyard grass [6]): 5 (weed kill ratio 90% or more, (practically complete withering)); C: oval-leafed pondweed, weed kill grade (oval-leafed pondweed [7]): 5 (weed kill ratio 90% or more, (practically complete withering))
3 | CC(C)(C(=O)Nc1cc(Cl)cc(-c2ccccc2)n1)N1COCN(c2ccccc2)C1=O [A-2-31] | 0 (weed kill ratio 5% or less (practically no effect)) | 5 (weed kill ratio 90% or more, (practically complete withering)) | 5 (weed kill ratio 90% or more, (practically complete withering)) | 3 (weed kill ratio 40% or more, less than 70%) | 0 (weed kill ratio 5% or less (practically no effect)) | 0 (weed kill ratio 5% or less (practically no effect)) | 4 (weed kill ratio 70% or more, less than 90%) | 5 (weed kill ratio 90% or more, (practically complete withering)) | 0 (weed kill ratio 5% or less (practically no effect)) | 0 (weed kill ratio 5% or less (practically no effect)) | 0 (weed kill ratio 5% or less (practically no effect)) | 2 (weed kill ratio 20% or more, less than 40%) | 2 (weed kill ratio 20% or more, less than 40%) | 2 (weed kill ratio 20% or more, less than 40%) | 0 (weed kill ratio 5% or less (practically no effect)) | 3 (weed kill ratio 40% or more, less than 70%) | 0 (weed kill ratio 5% or less (practically no effect)) | 1 (weed kill ratio 5% or more, less than 20%) | 3 (weed kill ratio 40% or more, less than 70%) | 2 (weed kill ratio 20% or more, less than 40%) | F: barnyard grass, weedkilling efficacy grade (barnyard grass [5]): 2 (weed kill ratio 20% or more, less than 40%); H: black-grass, weedkilling efficacy grade (black-grass): 3 (weed kill ratio 40% or more, less than 70%); e: wheat, effect on crop grade (wheat): 0 (weed kill ratio 5% or less (practically no effect)); J: common wind-grass, weedkilling efficacy grade (common wind-grass): 4 (weed kill ratio 70% or more, less than 90%); A: barnyard grass, weed kill grade (barnyard grass [6]): 5 (weed kill ratio 90% or more, (practically complete withering)); C: oval-leafed pondweed, weed kill grade (oval-leafed pondweed [7]): 5 (weed kill ratio 90% or more, (practically complete withering))
